Data reported in US20140377189A1, “PULMONARY ADMINISTRATION OF ROTIGOTINE” (MAP Pharmaceuticals, Inc., priority 2013, published 2014).

Assay: In situ rotigotine salt screening (precipitate formation in ethanol/HFA 227 solution formulation)
Assay type: physicochemical
Conditions: 10% (w/w) ethanol in HFA 227; for Observation Immediate / Observation 1 week at 5° C. / Observation 1 week at RT: 1 mg/mL rotigotine free base with acid; for Observation Immediate: immediately upon preparation; for Observation 1 week at 5° C.: another week at 5° C. after 1 week at RT; for Observation 1 week at RT: stored 1 week at room temperature
Method: Rotigotine, bulk drug substance, was purchased from Chemagis (Perrigo API). A stock solution of rotigotine was prepared by dissolving rotigotine particles in ethanol at 10 mg/mL. With 1.5 mL rotigotine stock solution added to formulation bottles, each formulation bottle contained 15 mg rotigotine. For preparation of acid stock solutions, it was assumed that complete reaction or ion-pairing between rotigotine and acid. Based on the molecular weight and number of anions of each acid as listed in Table 1, acids stock solutions were prepared by dissolving the required amount in ethanol.
Each formulation bottle was filed with 1.5 mL of rotigotine stock solution and 1.0 ml, of acid stock solution. The formulation bottles (PET bottles) were then sealed with continuous valves and vortexed for 30 seconds to mix the solution well. Finally, 17.6 g of 1,1,1,2,3,3,3-heptafluoropropane (HFA227 (Mexichem)) to make a final volume of 15 mL of rotigotine formulation. All the bottles were hand shaken for 10 seconds.
All in situ salt screening samples were made as 1 mg/mL of rotigtine free base in 10% (w/w) ethanol in HFA 227. Acids corresponding to the salt forms in Table 1 were added according to the molar ratio with rotigotine for complete reaction. As 1 mg/mL was the minimal required dose at the time of experiment, all formulations were tested at this level to screen out non-solution salt formulations.
These were the rotigotine citrate, fumarate, succinate, sulfate, tartrate, xinafoate salt formulations. […] rotigotine salt formulations were immediately ruled out as the precipitate formation was not desired. All clear solution samples were stored at room temperature (RT) for 1 week. […] These were rotigotine acetate, benzoate and mesylate salt formulations. These 3 rotigotine salt formulations were also ruled out as precipitate formation is not desired. The rest of the samples remained as clear solutions (stable) at after another week at 5° C.
Out of the 7 acids that remained a clear solution after 1 week of storage, rotigotine maleate was selected as the lead candidate and suitable as a stable solution for oral pulmonary aerosol delivery.

Row | Compound | Observation Immediate | Observation 1 week at 5° C. | Observation 1 week at RT | stayed in solution formulation at the minimum required concentration (minimum required concentration 1 mg/mL)
1 | Tartrate | white precipitate |  |  | 
2 | Fumarate | white precipitate |  |  | 
3 | O=S(=O)(O)O [Sulfate] | white precipitate |  |  | 
4 | rotigotine propionate | solution | solution | solution | 
5 | CC(=O)O.CCCN(CCc1cccs1)[C@H]1CCc2c(O)cccc2C1 [Acetate, rotigotine acetate] | solution |  | red precipitate | 
6 | CC(O)C(=O)O.CCCN(CCc1cccs1)[C@H]1CCc2c(O)cccc2C1 [Lactate, rotigotine lactate] | solution | solution | solution | 
7 | rotigotine stearate | solution | solution | solution | 
8 | rotigotine pamoate | solution | solution | solution | 
9 | rotigotine palmitate | solution | solution | solution | 
10 | rotigotine citrate | white precipitate |  |  | 
11 | rotigotine glycolate | solution | solution | solution | 
12 | Benzoate | solution |  | red precipitate | 
13 | rotigotine maleate | solution | solution | solution | stayed in solution
